Read-outs that look alike come from different tables or passages of the source.
Experiments:
[1] = target: T1, E. coli ADP-glucose pyrophosphorylase (ADP-Glc PPase) (Escherichia coli, UniProt P0A6V1); assay: thermal shift assay, SYPRO Orange; format: binding; details: read-out: dTm at 1 mM
T1 construct: gene glgC
T1 sequence (P0A6V1 1-431): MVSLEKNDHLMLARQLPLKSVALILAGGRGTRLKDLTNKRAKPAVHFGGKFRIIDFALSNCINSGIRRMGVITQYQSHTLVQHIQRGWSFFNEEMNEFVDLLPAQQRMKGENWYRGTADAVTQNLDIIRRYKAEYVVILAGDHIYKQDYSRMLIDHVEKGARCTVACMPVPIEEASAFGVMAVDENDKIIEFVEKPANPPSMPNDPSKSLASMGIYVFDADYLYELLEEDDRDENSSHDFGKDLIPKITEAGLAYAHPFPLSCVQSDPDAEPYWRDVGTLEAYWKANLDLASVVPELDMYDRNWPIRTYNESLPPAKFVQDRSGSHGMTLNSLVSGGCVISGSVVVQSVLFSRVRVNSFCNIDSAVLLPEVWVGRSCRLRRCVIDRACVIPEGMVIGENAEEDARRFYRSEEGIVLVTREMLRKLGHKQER

[2] = target: T2, E. coli ADP-glucose pyrophosphorylase (ADP-Glc PPase) (Escherichia coli, UniProt P0A6V1, R419A); assay: ADP-glucose synthesis, colorimetric phosphate detection after pyrophosphatase; format: biochemical
T2 construct: gene glgC
T2 sequence (P0A6V1 1-431 R419A): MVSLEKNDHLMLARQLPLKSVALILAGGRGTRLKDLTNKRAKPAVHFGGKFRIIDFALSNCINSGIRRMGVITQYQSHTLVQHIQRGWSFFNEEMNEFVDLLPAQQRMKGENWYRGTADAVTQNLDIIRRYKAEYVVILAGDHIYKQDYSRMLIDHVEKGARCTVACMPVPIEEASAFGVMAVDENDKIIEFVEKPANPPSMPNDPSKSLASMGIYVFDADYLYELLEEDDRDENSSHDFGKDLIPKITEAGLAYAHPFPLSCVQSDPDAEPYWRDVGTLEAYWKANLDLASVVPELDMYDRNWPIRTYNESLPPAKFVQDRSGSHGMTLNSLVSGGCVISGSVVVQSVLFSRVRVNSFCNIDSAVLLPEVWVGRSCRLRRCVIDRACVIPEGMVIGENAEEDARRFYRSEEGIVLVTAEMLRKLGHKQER
Text: (§1) ADP-glucose synthesis, colorimetric phosphate detection after pyrophosphatase on E. coli ADP-glucose pyrophosphorylase (ADP-Glc PPase)

[3] = target: T1, E. coli ADP-glucose pyrophosphorylase (ADP-Glc PPase); assay: as above; format: biochemical
Text: as §1

[4] = target: T3, E. coli ADP-glucose pyrophosphorylase (ADP-Glc PPase) (Escherichia coli, UniProt P0A6V1, R130A); assay: as above; format: biochemical
T3 construct: gene glgC
T3 sequence (P0A6V1 1-431 R130A): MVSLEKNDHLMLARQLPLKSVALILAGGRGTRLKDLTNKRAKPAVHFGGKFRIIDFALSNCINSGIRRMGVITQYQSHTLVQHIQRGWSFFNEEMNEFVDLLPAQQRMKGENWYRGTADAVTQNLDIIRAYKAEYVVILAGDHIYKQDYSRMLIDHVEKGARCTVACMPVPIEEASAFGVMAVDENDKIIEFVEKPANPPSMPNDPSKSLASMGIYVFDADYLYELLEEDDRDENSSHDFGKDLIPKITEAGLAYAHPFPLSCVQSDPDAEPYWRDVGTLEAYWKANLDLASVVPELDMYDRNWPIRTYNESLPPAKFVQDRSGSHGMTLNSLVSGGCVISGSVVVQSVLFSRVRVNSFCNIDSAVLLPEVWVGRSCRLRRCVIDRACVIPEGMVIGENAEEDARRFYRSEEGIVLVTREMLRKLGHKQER
Text: as §1

[5] = target: T4, E. coli ADP-glucose pyrophosphorylase (ADP-Glc PPase) (Escherichia coli, UniProt P0A6V1, R386A); assay: as above; format: biochemical
T4 construct: gene glgC
T4 sequence (P0A6V1 1-431 R386A): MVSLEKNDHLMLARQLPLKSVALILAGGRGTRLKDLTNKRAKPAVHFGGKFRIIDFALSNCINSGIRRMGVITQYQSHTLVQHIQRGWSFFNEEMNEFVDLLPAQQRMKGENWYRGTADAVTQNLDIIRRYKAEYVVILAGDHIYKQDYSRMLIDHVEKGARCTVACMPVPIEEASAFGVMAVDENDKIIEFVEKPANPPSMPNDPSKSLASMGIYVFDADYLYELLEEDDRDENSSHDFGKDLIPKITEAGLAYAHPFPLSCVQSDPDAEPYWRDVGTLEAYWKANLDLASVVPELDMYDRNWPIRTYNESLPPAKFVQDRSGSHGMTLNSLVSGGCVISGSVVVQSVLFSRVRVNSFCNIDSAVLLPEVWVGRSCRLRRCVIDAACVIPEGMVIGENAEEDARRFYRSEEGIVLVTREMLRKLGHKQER
Text: as §1

[6] = target: T5, E. coli ADP-glucose pyrophosphorylase (ADP-Glc PPase) (Escherichia coli, UniProt P0A6V1, R423A); assay: as above; format: biochemical
T5 construct: gene glgC
T5 sequence (P0A6V1 1-431 R423A): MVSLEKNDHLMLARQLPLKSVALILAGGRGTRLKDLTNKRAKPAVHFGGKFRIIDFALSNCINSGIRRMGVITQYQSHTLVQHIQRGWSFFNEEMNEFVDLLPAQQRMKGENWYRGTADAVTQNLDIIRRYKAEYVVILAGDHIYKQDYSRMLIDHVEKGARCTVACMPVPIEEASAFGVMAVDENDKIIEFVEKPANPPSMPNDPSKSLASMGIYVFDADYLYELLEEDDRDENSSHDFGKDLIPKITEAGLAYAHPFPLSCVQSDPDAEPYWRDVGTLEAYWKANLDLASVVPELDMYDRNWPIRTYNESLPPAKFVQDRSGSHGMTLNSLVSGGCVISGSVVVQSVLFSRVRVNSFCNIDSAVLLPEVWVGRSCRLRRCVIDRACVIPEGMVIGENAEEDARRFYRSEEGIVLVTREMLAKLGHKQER
Text: as §1

[7] = target: T6, E. coli ADP-glucose pyrophosphorylase (ADP-Glc PPase) (Escherichia coli, UniProt P0A6V1, R353A); assay: as above; format: biochemical
T6 construct: gene glgC
T6 sequence (P0A6V1 1-431 R353A): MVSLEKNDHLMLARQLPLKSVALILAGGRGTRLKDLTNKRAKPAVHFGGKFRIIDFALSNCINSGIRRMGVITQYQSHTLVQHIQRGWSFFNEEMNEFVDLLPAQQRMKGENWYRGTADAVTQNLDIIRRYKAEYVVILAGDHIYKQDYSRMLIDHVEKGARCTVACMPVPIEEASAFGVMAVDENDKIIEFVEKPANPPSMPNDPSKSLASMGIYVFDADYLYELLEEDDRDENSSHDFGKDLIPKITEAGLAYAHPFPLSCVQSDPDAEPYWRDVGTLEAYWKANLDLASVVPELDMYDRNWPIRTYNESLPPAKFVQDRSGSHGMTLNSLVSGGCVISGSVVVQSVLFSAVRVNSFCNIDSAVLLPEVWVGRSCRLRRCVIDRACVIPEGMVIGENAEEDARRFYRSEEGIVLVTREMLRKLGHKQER
Text: as §1

[8] = target: T7, E. coli ADP-glucose pyrophosphorylase (ADP-Glc PPase) (Escherichia coli, UniProt P0A6V1, R40A); assay: as above; format: biochemical; details: read-out: PLP / A0.5 /
T7 construct: gene glgC
T7 sequence (P0A6V1 1-431 R40A): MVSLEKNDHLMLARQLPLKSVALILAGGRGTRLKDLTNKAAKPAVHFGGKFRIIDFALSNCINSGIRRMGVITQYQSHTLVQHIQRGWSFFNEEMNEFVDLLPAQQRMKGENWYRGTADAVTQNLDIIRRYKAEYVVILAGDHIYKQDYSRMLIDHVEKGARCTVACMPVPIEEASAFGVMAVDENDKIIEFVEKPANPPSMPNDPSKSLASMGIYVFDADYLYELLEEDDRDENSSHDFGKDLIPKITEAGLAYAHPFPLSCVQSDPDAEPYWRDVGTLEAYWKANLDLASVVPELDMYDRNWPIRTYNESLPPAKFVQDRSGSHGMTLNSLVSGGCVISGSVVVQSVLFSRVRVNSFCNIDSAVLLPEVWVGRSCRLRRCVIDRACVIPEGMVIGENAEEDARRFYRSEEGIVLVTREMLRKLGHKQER
Text: as §1

[9] = target: T8, E. coli ADP-glucose pyrophosphorylase (ADP-Glc PPase) (Escherichia coli, UniProt P0A6V1, R52K); assay: as above; format: biochemical; details: read-out: PLP / A0.5 /
T8 construct: gene glgC
T8 sequence (P0A6V1 1-431 R52K): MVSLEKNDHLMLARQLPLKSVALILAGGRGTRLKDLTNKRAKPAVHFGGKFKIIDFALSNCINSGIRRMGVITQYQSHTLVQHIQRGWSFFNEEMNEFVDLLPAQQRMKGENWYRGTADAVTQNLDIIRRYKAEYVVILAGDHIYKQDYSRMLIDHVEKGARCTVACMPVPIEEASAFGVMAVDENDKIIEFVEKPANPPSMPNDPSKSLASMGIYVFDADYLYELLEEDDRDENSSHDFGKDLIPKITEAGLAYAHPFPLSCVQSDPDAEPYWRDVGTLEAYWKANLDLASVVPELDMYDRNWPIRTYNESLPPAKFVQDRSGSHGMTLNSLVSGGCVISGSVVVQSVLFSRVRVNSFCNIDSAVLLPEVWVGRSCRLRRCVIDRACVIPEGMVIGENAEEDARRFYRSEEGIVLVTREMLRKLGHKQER
Text: as §1

[10] = substrate: Nc1ncnc2c1ncn2[C@@H]1O[C@H](COP(=O)(O)OP(=O)(O)OP(=O)(O)O)[C@@H](O)[C@H]1O; assay: as above; format: biochemical, Escherichia coli; details: no activator (control), 1 mM Glc1P, 10 mM MgCl2, 50 mM HEPES pH 8.0
Protocol: One was measured in absence (control)

[11] = activator, allosteric, 1.0 mM Glc1P, 1.5 mM ATP, 10 mM MgCl2, pH 8.0, read-out: FBP / A0.5 /

Molecule: O=P(O)(O)OC[C@H]1OC(O)(COP(=O)(O)O)[C@@H](O)[C@@H]1O (stereo partly shown) [FBP]
- ΔTm at 1000 µM [1]: 13.2 °C
- EC50 [2, 11]: 36 ± 11 µM
- EC50 [3, 11]: 27 ± 9 µM
- EC50 [4, 11]: 67 ± 10 µM
- EC50 [5, 11]: 1000 ± 130 µM
- EC50 [6, 11]: 320 ± 50 µM
- EC50 [7, 11]: 40 ± 10 µM

Molecule: Cc1ncc(COP(=O)(O)O)c(C=O)c1O [PLP]
- EC50 ([2]; read-out: PLP / A0.5 /): 0.019 ± 0.005 µM
- EC50 [8]: 480 ± 220 nM
- EC50 ([3]; read-out: PLP / A0.5 /): 0.075 ± 0.004 µM
- EC50 [9]: 220 ± 50 nM
- EC50 ([4]; read-out: PLP / A0.5 /): 1.29 ± 0.23 µM
- EC50 ([5]; read-out: PLP / A0.5 /): 4.2 ± 0.6 µM
- EC50 ([6]; read-out: PLP / A0.5 /): 0.21 ± 0.01 µM
- EC50 ([7]; read-out: PLP / A0.5 /): 0.16 ± 0.01 µM

B1: E. coli ADP-glucose pyrophosphorylase (ADP-Glc PPase) (Escherichia coli K-12) (protein)
chain: MVSLEKNDHLMLARQLPLKSVALILAGGRGTRLKDLTNKRAKPAVHFGGKFRIIDFALSNCINSGIRRMGVITQYQSHTLVQHIQRGWSFFNEEMNEFVDLLPAQQRMKGENWYRGTADAVTQNLDIIRRYKAEYVVILAGDHIYKQDYSRMLIDHVEKGARCTVACMPVPIEEASAFGVMAVDENDKIIEFVEKPANPPSMPNDPSKSLASMGIYVFDADYLYELLEEDDRDENSSHDFGKDLIPKITEAGLAYAHPFPLSCVQSDPDAEPYWRDVGTLEAYWKANLDLASVVPELDMYDRNWPIRTYNESLPPAKFVQDRSGSHGMTLNSLVSGGCVISGSVVVQSVLFSRVRVNSFCNIDSAVLLPEVWVGRSCRLRRCVIDRACVIPEGMVIGENAEEDARRFYRSEEGIVLVTREMLRKLGHKQER
- K0.5 [10]: 1.75 ± 0.09 mM
